Test results as given in US20090312373A1, “METHODS FOR THE TREATMENT OF CANCER USING PIPERLONGUMINE AND PIPERLONGUMINE ANALOGS” (The General Hospital Corporation, priority 2008, published 2009).

How the values were obtained:
Twist and N-cadherin = assay: Histological examination of Twist and N-cadherin in MMTV-PyVT mammary tumors; format: in vivo, mouse; details: i.p. total 2.4 mg/kg daily for two weeks
Description: A scheme for piperlongumine (SP2007)-mediated repression of Twist expression and its downstream targets that are involved in tumor invasion/metastasis is presented in FIG. 39A. […] U2OS and EJ cells were treated with SP2007 at two concentrations (10 μM and 20 μM) as well as with DMSO as a solvent control. After 20 hours, cell lysates were extracted and western blotting was performed against Twist, N-cadherin and p120 catenin (Zymed and Sigma Aldrich). […] Female MMTV-PyVT mice at 8-9 weeks age were chosen for the studies. When tumor sizes grew to ˜5-6 mm in diameter, SP2007 or DMSO was administered intraperitoneally (I.P., total 2.4 mg/kg of SP2007) daily for two weeks. After two weeks treatment, mice were sacrificed and mammary tumors excised and processed for histological examination.

[1] = test system: CDIP promoter containing p53 binding site; assay: CDIP promoter/p53 responsive site luciferase reporter screen; format: cell-based, human
From the text: We screened a small molecule library of biologically active compounds using a Luciferase reporter gene construct fused with CDIP (Cell Death Involved p53 target) promoter/p53 responsive site as a read-out assay. p53 transcriptional activators were identified from screening the diversity set of the biologically active library using U2OS human cancer cells expressing the p53-responsive reporter. Briefly, a reporter construct was created that included the CDIP promoter operatively linked to the luc2 luciferase reporter gene. We stably expressed a human p53 reporter, luciferase2/Puro+CDIP promoter, which carries the firefly luciferase gene under the control of p53-responsive elements of CDIP promoter, in U2OS cells. Stable cell lines were produced that expressed the reporter construct, and the cells were plated in 384 well plates at ˜10,000 cells per well. Test compounds were added to the plated cells at two replicates per compound, and the cells were incubated with the compounds for 24 hours. The data were analyzed using Spotfire. The initial screen identified several compounds that activated p53-responsive reporter expression during 48 hours.

[2] = Precipitation on dilution of DMSO solution; format: physicochemical; details: diluted 1:10 in phosphate buffered saline or water
Description: (§1) To avoid toxicity, piperlongumine should be used at less than 2.5 mg/kg in mice. The skilled person will know how to formulate the compounds of the invention in accordance with the solubility by selection of appropriate carriers, solubilizers, etc.

Toxicity limit in mice = format: in vivo, mouse
Description: as §1

[3] = test system: EJ bladder carcinoma cells; assay: Persistent effects after removal of the compound in EJ cells; format: cell-based, human
Description: EJ bladder carcinoma cells were treated with SP2007 (P10: 10 μM and P20: 20 μM), taxol (T10: 10 nM and T20: 20 nM) or DMSO vehicle control for either 20 hrs or 3 hrs. For the 20 hrs experiment, the percentages of remaining living cells ware measured on the end of the 20 hrs treatment time point. […] For the 3 hrs experiment, cells were washed 3 times with PBS after treatment with the and incubated for another 6 hrs in growing medium without SP2007, taxol or DMSO.

[4] = test system: p120ctn/vimentin/N-cadherin complex; assay: Vimentin immunoprecipitation / p120ctn Western blot in EJ cells; format: cell-based, human; details: 10 μM
Description: It is well-established that Twist plays a major role in tumor development and metastasis. Thus, we investigated whether piperlongumine (SP2007) mechanistically regulates a key signaling pathway involving a complex of p120ctn/vimentin/N-cadherin which is a Twist target that promotes tumor cell migration and invasion/metastasis. EJ cells were treated with 10 μM piperlongumine or vehicle for 20 hours and cell lysates were subsequently immunoprecipitated by Vimentin antibody (Sigma Aldrich, St. Louis, Mo.) followed by western blot against p120ctn to analyze the association of the p120ctn/vimentin/N-cadherin complex.
EJ cells were treated with piperlongumine (SP2007) (10 μM) for 12 hours. Subsequently the cells were harvested and subjected to immunoprecipitations using vimentin antibodies (Sigma Aldrich) to precipitate the vimentin complex. Western blots were performed for p120 CTN and vimentin. DMSO (D) treated cells were used as control IP experiments.

[5] = test system: EJ human bladder cancer cell xenografts; assay: EJ human bladder cancer xenograft in nude mice; format: in vivo, mouse
Description: We tested piperlongumine in colon tumor, breast, melanoma or bladder tumor xenograft-bearing mice to evaluate the anti-tumor effect of piperlongumine. We examined EJ human bladder cancer cell xenografts (non-functional p53) to evaluate anti-tumor effects. A total of 2×10^6 EJ cells or SW480 cells were implanted subcutaneously on opposite site flanks in each of six nude/nude mice in each group. When tumor masses grew to ˜5-10 mm in diameter, piperlongumine was administered intraperitoneally (28 ug per each intraperitoneal administration, total 1.2 mg/kg) every 48 hours for 12 days (6 times total).

[6] = test system: diploid fibroblasts, keratinocytes and breast epithelial cells; assay: Cell death in non-transformed control cells; format: cell-based

## COc1cc(/C=C/C(=O)N2CCC=CC2=O)cc(OC)c1OC [piperlongumine, N-(3,4,5,-trimethoxycinnamoyl)-Δ^3-piperidine-2-one]
Twist and N-cadherin
  N-cadherin expression in mammary tumors: inhibits N-cadherin expression
  Twist expression in mammary tumors: inhibits Twist expression
[1]; 10 μM, U2OS cells
  luciferase activity of the CDIP promoter containing p53 binding site: significantly increased
[1]; among natural compound candidates, U2OS reporter cells
  composite Z value in the screen: highest composite Z value
[2]
  concentration in DMSO that precipitated out when diluted 1:10: more than 0.25 mg/ml
Toxicity limit in mice
  dose to avoid toxicity: less than 2.5 mg/kg
[3]; 3 hrs treatment, washed, another 6 hrs in medium without compound
  killing of cancer cells after removal of the compound: still able to kill cancer cells
[3]; 20 hrs treatment, SP2007 10 and 20 μM, taxol 10 and 20 nM
  percentage of remaining living cells: No difference was observed
[4]; 12 hours
  p120 in the complex precipitated with vimentin: p120 was not in the complex
[4]; 20 hours
  association of the p120ctn/vimentin/N-cadherin complex: dissociation
[5]; 28 ug i.p. every 48 hours for 12 days (total 1.2 mg/kg), compared to DMSO
  anti-tumor effect: significant anti-tumor effects
[5]; tumor mice
  blood vessel formation (angiogenesis) in the tumors: strongly inhibited
  expression of apoptosis genes (p21, PUMA, Caspase 3) in tumor-mice: enhanced
[6]
  cell death/apoptosis in normal cells: not in normal cells
